The text below walks through data of patent publication US7115639B2, “Pyrrolidine oxadiazole- and thiadiazole oxime derivatives being oxytocin receptor antagonists” (Applied Research Systems ARS Holding N.V., priority 2001, dated 2006).

One test addresses T1, hOT receptor (Homo sapiens, UniProt P30559).
T1 construct: expressed in transfected cells; host or cells: HEK293EBNA
T1 sequence (P30559 1-389): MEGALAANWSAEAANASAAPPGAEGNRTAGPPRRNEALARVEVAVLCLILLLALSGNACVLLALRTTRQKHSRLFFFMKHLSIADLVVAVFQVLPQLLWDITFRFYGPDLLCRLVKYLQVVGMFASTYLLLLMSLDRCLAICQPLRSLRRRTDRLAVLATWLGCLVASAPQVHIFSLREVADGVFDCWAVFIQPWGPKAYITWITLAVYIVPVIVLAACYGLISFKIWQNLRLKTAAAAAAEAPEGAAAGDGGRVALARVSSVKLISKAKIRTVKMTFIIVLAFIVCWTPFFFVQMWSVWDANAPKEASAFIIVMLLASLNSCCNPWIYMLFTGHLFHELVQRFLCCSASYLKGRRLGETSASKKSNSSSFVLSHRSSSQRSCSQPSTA
The test is described as follows: In vitro competition binding assay with scintillating proximity assay. As to conditions: [125I]-OVTA competition; membranes from HEK293EBNA cells expressing the hOT receptor; read-out: Binding affinity human OT-R IC50. The method, then:
a) In Vitro Competition Binding Assay with Scintillating Proximity Assay (Pharmaceutical Manufacturing International, 1992, p. 49–53 by Cook, N. D. et al)
This assays allows to determine the affinity of the test compounds for the OT receptor. Membranes from HEK293EBNA cells expressing the hOT receptor were resuspended in buffer containing 50 mM Tris-HCl, pH 7.4, 5 mM MgCl2 and 0.1% BSA (w/v). The membranes (2–4 μg) were mixed with 0.1 mg wheat-germ aglutinin (WGA) SPA bead (type A) and 0.2 nM of the radiolabel [^125I]-OVTA (OVTA being Ornithin Vasoactive and is an analogue of OT for competition binding experiments). Non-specific binding was determined in the presence of 1 μM Oxytocin. The total assay volume was 100 μl. The plates (Corning® NBS plate) were incubated at room temperature for 30 min and counted on a Mibrobeta plate counter. The tests compounds were used in concentrations of 30 μM, 10 μM, 1 μM, 300 nM, 100 nM, 10 nM, 1 nM, 100 pM, 10 pM. The competition binding data were analysed using the iterative, non-linear, curve-fitting program, “Prism”.
The binding affinities to the oxytocin receptor of the pyrrolidine derivatives claimed in the formula I were assessed using the above described in vitro biological assay. The values refer to the binding affinity (IC50; μM) of the example compounds according to formula I to the Oxytocin receptor.

The next test addresses T2, hOT-R (Homo sapiens, UniProt P30559).
T2 construct: expressed in transfected cells; host or cells: HEK (Human Embryonic Kidney) cells
T2 sequence (P30559 1-389): T1 sequence (P30559 1-389)
The test is described as follows: Functional assay No. 1: inhibition of Ca2+-mobilization by FLIPR. Format: cell-based. The note with it: HEK cells, OT 40 nM. An excerpt:
b) Functional Assay No. 1: Inhibition of Ca^2+-mobilization by FLIPR (Fluorescent Imaging Plate Reader)
FLIPR is a machine for fluorescence imaging using a laser that is capable of illuminating a 96-well plate and a means of simultaneously reading each well thus enabling rapid measurements on a large number of samples.
This assay intends to show the inhibition of the OT/OT-R mediated calcium mobilisation—being necessary to cause uterine contractions—by using test compounds of formula (I).
Preparing the plates: FLIPR-plates were pre-coated with PLL (Poly-L-Lysine) 10 μg/ml+0.1% gelatine to attach the HEK (Human Embryonic Kidney) cells for 30 min up to 2 days at 37° C. The cells were plated out into 96-well plates (60000 cells/well).
Labelling with fluo-4: 50 μg fluo-4 (fluorescent marker) were dissolved in 20 μl pluronic acid (20% in DMSO). The dissolved fluo-4 was then diluted in 10 ml DMEM (Dubecco's Minimal Essential Medium-F12 medium without FCS (Fetal Calf Serum). The medium was removed from the plates, followed by one wash with DMEM-F12 medium. Now, 100 μl of the DMEM-F12 medium containing fluo-4 were added and the cells incubated for 1–1.5 h (CHO-cells), and 1.5–2 h (HEK-cells). The cells now contain the fluorescent marker.
Buffer: 145 mM NaCl, 5 mM KCl, 1 mM MgCl2, 10 mM Hepes, 10 mM Glucose, EGTA (Ethylene-bis oxyethylene nitrilo tetraacetic acid). Adjust to pH 7.4.
Performance of the assay: A minimum of 80 μl/well of antagonists (5×) in the above buffer (1×) were prepared (96-well plates). The antagonists were added to the well-plates at different concentrations (30 μM, 10 μM, 1 μM, 300 nM, 100 nM, 10 nM, 1 nM, 100 pM, 10 pM).
OT is added at a concentration of 40 nM.
The fluorescent market being sensitive to the amount of Ca^2+ mobilized within the cell may be quantified by the FLIPR machine.
The activities of the pyrrolidine derivatives according to formula I were assessed using the above described in vitro biological assay. The values refer to the capacity of the example compounds according to formula I to effectively antagonize oxytocin-induced intracellular Ca^2+-mobilization mediated by the Oxytocin receptor.

In general, IC50 refers to the concentration needed to halve the response being measured. `CCC(O)c1noc([C@@H]2CC(=NOC)CN2C(=O)c2ccc(-c3ccccc3)cc2)n1` (mixture of isomers) [(3EZ,5S)-1-([1,1′-biphenyl]-4-ylcarbonyl)-5-{3-[(1RS)-1-hydroxypropyl]-1,2,4-oxadiazol-5-yl}-3-pyrrolidinone O-methyloxime]: at hOT receptor, the half-inhibitory concentration (IC50) came out at 6 nM.

In the case of `CO/N=C1\C[C@@H](c2nc(C)no2)N(C(=O)c2ccc(-c3ccccc3C)cc2)C1` [(3E,5S)-1-[(2′-methyl[1,1′-biphenyl]-4-yl)carbonyl]-5-(3-methyl-1,2,4-oxadiazol-5-yl)-3-pyrrolidinone O-methyloxime], at hOT receptor, the IC50 was 23 nM.

Regarding `CON=C1C[C@@H](c2nnco2)N(C(=O)c2ccc(-c3ccccc3)cc2)C1` [(3EZ,5S)-1-([1,1′-biphenyl]-4-ylcarbonyl)-5-(1,3,4-oxadiazol-2-yl)-3-pyrrolidinone O-methyloxime], the figures for the IC50 against hOT-R and at hOT receptor were 220 nM and 211 nM, respectively.

As to `CON=C1C[C@@H](c2nc(C)no2)N(C(=O)c2ccc(-c3ccccc3)cc2)C1` [(3EZ,5S)-1-([1,1′-biphenyl]-4-ylcarbonyl)-5-(3-methyl-1,2,4-oxadiazol-5-yl)-3-pyrrolidinone O-methyloxime], the figures for the IC50 on hOT-R and on hOT receptor were 4 nM and 88 nM, respectively.

Turning to `CON=C1C[C@@H](c2nc(CCO)no2)N(C(=O)c2ccc(-c3ccccc3)cc2)C1` [(3EZ,5S)-1-([1,1′-biphenyl]-4-ylcarbonyl)-5-[3-(2-hydroxyethyl)-1,2,4-oxadiazol-5-yl]-3-pyrrolidinone O-methyloxime], the half-inhibitory concentration (IC50) at hOT receptor was 11 nM.

As to `CON=C1C[C@@H](c2nc(CC(=O)N3CCCC3)no2)N(C(=O)c2ccc(-c3ccccc3)cc2)C1` [(3EZ,5S)-1-([1,1′-biphenyl]-4-ylcarbonyl)-5-{3-[2-oxo-2-(1-pyrrolidinyl)ethyl]-1,2,4-oxadiazol-5-yl}-3-pyrrolidinone O-methyloxime], the IC50 at hOT receptor stood at 7 nM.

`CON=C1C[C@@H](c2nc(C)no2)N(C(=O)c2ccc(-c3ccccc3Cl)cc2)C1` [(3EZ,5S)-1-[(2′-chloro[1,1′-biphenyl]-4-yl)carbonyl]-5-(3-methyl-1,2,4-oxadiazol-5-yl)-3-pyrrolidinone O-methyloxime] displayed an IC50 on hOT-R of 1 nM.

`CON=C1C[C@@H](c2nc(C)no2)N(C(=O)c2ccc(-c3ccccc3C)cc2)C1` [(3EZ,5S)-1-[(2′-methyl[1,1′-biphenyl]-4-yl)carbonyl]-5-(3-methyl-1,2,4-oxadiazol-5-yl)-3-pyrrolidinone O-methyloxime]: the IC50 on hOT-R amounted to 12 nM; at hOT receptor, 21 nM.

Consider `CON=C1C[C@@H](c2noc(C3CCN(C(C)=O)CC3)n2)N(C(=O)c2ccc(-c3ccccc3)cc2)C1` [(3EZ,5S)-5-[5-(1-acetyl-4-piperidinyl)-1,2,4-oxadiazol-3-yl]-1-([1,1′-biphenyl]-4-ylcarbonyl)-3-pyrrolidinone O-methyloxime], for which the IC50 on hOT receptor came to 2 nM.

In the case of `CON=C1C[C@@H](c2noc(CNC(C)=O)n2)N(C(=O)c2ccc(-c3ccccc3)cc2)C1` [N-({3-[(2S,4EZ)-1-([1,1′-biphenyl]-4-ylcarbonyl)-4-(methoxyimino)pyrrolidinyl]-1,2,4-oxadiazol-5-yl}methyl)acetamide], the IC50 at hOT receptor was 3 nM.
